Assays:
Experiment in all cases: relative viability (nuclei count vs DMSO), 5 days (fraction); higher = more cells survive
[1] = system: HCC-366
Summary of the method: (§1)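 Medians of duplicate plates are given as relative viability. That measure is the nuclei count in treated wells divided by the count in vehicle wells. Counts were taken on 4× images of lung cancer cell lines in 1536-well plates, 5 days after pin-tool dosing the day after seeding with one drug alone or a fixed anchor-drug dose plus five library-drug doses (not always all listed) in √10 steps.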

[2] = system: NCI-H322M
Summary of the method: as §1

[3] = system: NCI-H2228
Summary of the method: as §1

[4] = system: ABC-1
Summary of the method: as §1

[5] = system: NCI-H1993
Summary of the method: as §1

[6] = system: EPLC-272H
Summary of the method: as §1

[7] = system: SK-MES-1
Summary of the method: as §1

[8] = system: NCI-H1975
Summary of the method: as §1

[9] = system: EKVX
Summary of the method: as §1

[10] = system: NCI-H2087
Summary of the method: as §1

[11] = system: COR-L 105
Summary of the method: as §1

[12] = system: NCI-H441
Summary of the method: as §1

[13] = system: H3255
Summary of the method: as §1

[14] = system: NCI-H1792
Summary of the method: as §1

[15] = system: NCI-H2085
Summary of the method: as §1

[16] = system: NCI-H2009
Summary of the method: as §1

[17] = system: CAL-12T
Summary of the method: as §1

[18] = system: HCC-827
Summary of the method: as §1

[19] = system: NCI-H460
Summary of the method: as §1

[20] = system: NCI-H1355
Summary of the method: as §1

Nc1cccc2c1CN(C1CCC(=O)NC1=O)C2=O (centres undefined) [Lenalidomide] + Cc1nc(NC(=O)N2CCC[C@H]2C(N)=O)sc1-c1ccnc(C(C)(C)C(F)(F)F)c1 [Alpelisib] (partner 2 µM)
relative viability ([1]; first compound 0.253 µM): 0.402 | relative viability ([1]; first compound 0.8 µM): 0.336 | relative viability ([1]; first compound 2.53 µM): 0.549 | relative viability ([1]; first compound 8 µM): 0.324 | relative viability ([2]; first compound 0.253 µM): 0.745 | relative viability ([2]; first compound 0.8 µM): 0.887 | relative viability ([2]; first compound 2.53 µM): 0.837 | relative viability ([2]; first compound 8 µM): 0.66 | relative viability ([3]; first compound 0.253 µM): 0.851 | relative viability ([3]; first compound 0.8 µM): 0.736 | relative viability ([3]; first compound 2.53 µM): 0.785 | relative viability ([3]; first compound 8 µM): 0.817 | relative viability ([4]; first compound 0.253 µM): 0.948 | relative viability ([4]; first compound 0.8 µM): 0.996 | relative viability ([4]; first compound 2.53 µM): 1.02 | relative viability ([4]; first compound 8 µM): 1.01 | relative viability ([5]; first compound 0.253 µM): 0.744 | relative viability ([5]; first compound 0.8 µM): 0.734 | relative viability ([5]; first compound 2.53 µM): 0.683 | relative viability ([5]; first compound 8 µM): 0.713 | relative viability ([6]; first compound 0.253 µM): 0.975 | relative viability ([6]; first compound 2.53 µM): 1.03 | relative viability ([6]; first compound 8 µM): 0.684 | relative viability ([7]; first compound 0.253 µM): 0.908 | relative viability ([7]; first compound 0.8 µM): 1.02 | relative viability ([7]; first compound 2.53 µM): 0.975 | relative viability ([7]; first compound 8 µM): 0.617 | relative viability ([8]; first compound 0.253 µM): 0.724 | relative viability ([8]; first compound 0.8 µM): 0.667 | relative viability ([8]; first compound 2.53 µM): 0.753 | relative viability ([8]; first compound 8 µM): 0.592 | relative viability ([9]; first compound 0.253 µM): 0.803 | relative viability ([9]; first compound 0.8 µM): 0.95 | relative viability ([9]; first compound 2.53 µM): 0.931 | relative viability ([9]; first compound 8 µM): 0.772 | relative viability ([10]; first compound 0.253 µM): 0.996 | relative viability ([10]; first compound 0.8 µM): 0.945 | relative viability ([10]; first compound 2.53 µM): 1.17 | relative viability ([10]; first compound 8 µM): 1.08 | relative viability ([11]; first compound 0.253 µM): 0.982 | relative viability ([11]; first compound 0.8 µM): 0.81 | relative viability ([11]; first compound 2.53 µM): 1.07 | relative viability ([11]; first compound 8 µM): 0.994 | relative viability ([12]; first compound 0.253 µM): 0.74 | relative viability ([12]; first compound 0.8 µM): 0.663 | relative viability ([12]; first compound 2.53 µM): 0.917 | relative viability ([12]; first compound 8 µM): 0.775 | relative viability ([13]; first compound 0.253 µM): 0.664 | relative viability ([13]; first compound 0.8 µM): 0.682 | relative viability ([13]; first compound 2.53 µM): 0.916 | relative viability ([13]; first compound 8 µM): 0.584 | relative viability ([14]; first compound 0.253 µM): 0.755 | relative viability ([14]; first compound 0.8 µM): 0.604 | relative viability ([14]; first compound 2.53 µM): 0.82 | relative viability ([14]; first compound 8 µM): 0.612 | relative viability ([15]; first compound 0.253 µM): 1.01 | relative viability ([15]; first compound 0.8 µM): 0.997 | relative viability ([15]; first compound 2.53 µM): 0.952 | relative viability ([15]; first compound 8 µM): 0.972 | relative viability ([16]; first compound 0.253 µM): 1.1 | relative viability ([16]; first compound 0.8 µM): 1.12 | relative viability ([16]; first compound 2.53 µM): 1.19 | relative viability ([16]; first compound 8 µM): 1.21 | relative viability ([17]; first compound 0.253 µM): 1.09 | relative viability ([17]; first compound 0.8 µM): 1.33 | relative viability ([17]; first compound 2.53 µM): 1.52 | relative viability ([17]; first compound 8 µM): 1.36 | relative viability ([18]; first compound 0.253 µM): 0.978 | relative viability ([18]; first compound 0.8 µM): 1.06 | relative viability ([18]; first compound 2.53 µM): 0.96 | relative viability ([18]; first compound 8 µM): 0.846 | relative viability ([19]; first compound 0.253 µM): 0.363 | relative viability ([19]; first compound 0.8 µM): 0.492 | relative viability ([19]; first compound 2.53 µM): 0.667 | relative viability ([19]; first compound 8 µM): 0.57 | relative viability ([20]; first compound 0.253 µM): 0.806 | relative viability ([20]; first compound 0.8 µM): 0.645 | relative viability ([20]; first compound 2.53 µM): 0.848 | relative viability ([20]; first compound 8 µM): 0.454

From the supplement of paper PMC10307832
